From patent US10005782B2, “Substituted pyrazolo[1,5-a]pyrimidines as bruton's tyrosine kinase modulators” (BeiGene, Ltd., priority 2013, dated 2018)
Like-named read-outs stand apart in the source and are kept apart here.

Biological target: Recombinant Btk (Homo sapiens (Human), UniProt Q06187)
Experiment: Btk kinase assay (TR-FRET)
[1] = read-out: IC50 (nM) Btk, 1 hour pre-incubation, ATP at Km

Chain of Recombinant Btk (Q06187 whole entry): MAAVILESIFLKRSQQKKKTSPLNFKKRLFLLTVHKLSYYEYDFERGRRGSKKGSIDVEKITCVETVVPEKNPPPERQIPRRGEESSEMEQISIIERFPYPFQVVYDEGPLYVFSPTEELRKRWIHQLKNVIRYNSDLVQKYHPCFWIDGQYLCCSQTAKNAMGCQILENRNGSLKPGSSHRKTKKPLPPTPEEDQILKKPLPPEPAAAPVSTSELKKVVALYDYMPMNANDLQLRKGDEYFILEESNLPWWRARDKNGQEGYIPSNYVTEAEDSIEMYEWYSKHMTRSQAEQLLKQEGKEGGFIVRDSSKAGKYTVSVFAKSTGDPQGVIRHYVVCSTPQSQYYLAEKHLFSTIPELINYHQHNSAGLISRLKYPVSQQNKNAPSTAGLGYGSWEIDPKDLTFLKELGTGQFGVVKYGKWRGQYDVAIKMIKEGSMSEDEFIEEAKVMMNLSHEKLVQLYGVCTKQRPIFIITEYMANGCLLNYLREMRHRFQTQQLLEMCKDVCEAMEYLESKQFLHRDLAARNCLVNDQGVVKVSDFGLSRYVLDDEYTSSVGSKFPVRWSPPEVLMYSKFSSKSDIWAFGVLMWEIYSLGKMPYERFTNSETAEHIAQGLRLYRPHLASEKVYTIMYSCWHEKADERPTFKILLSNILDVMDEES

Row | Compound | IC50 [1] | further results
1 | NC(=O)c1c(-c2ccc(Oc3ccccc3)cc2)nn2c1NCCC2c1cccc(N)c1 (single isomer, unassigned) [Compound 2a, 7-(3-Aminophenyl)-2-(4-phenoxyphenyl)-4,5,6,7-tetrahydropyrazolo[1,5-a]pyrimidine-3-carboxamide] |  | IC50 (read-out: IC50 (nM) Btk, 1 hour pre-incubation, ATP at Km, listed as 2a (peak 1)): 270 nM
2 | NC(=O)c1c(-c2ccc(Oc3ccccc3)cc2)nn2c1NCCC2c1cccc(N)c1 (single isomer, unassigned) [Compound 2b, 7-(3-Aminophenyl)-2-(4-phenoxyphenyl)-4,5,6,7-tetrahydropyrazolo[1,5-a]pyrimidine-3-carboxamide] |  | IC50 (read-out: IC50 (nM) Btk, 1 hour pre-incubation, ATP at Km, listed as 2b (peak 2)): 210 nM
3 | C=CC(=O)Nc1ccccc1C1CCNc2c(C(N)=O)c(-c3ccc(F)c(F)c3)nn21 (stereo not shown) [Compound 137, 7-(2-acrylamidophenyl)-2-(3,4-difluorophenyl)-4,5,6,7-tetrahydropyrazolo[1,5-a]pyrimidine-3-carboxamide] | 3.7 nM | 
4 | C=CC(=O)Nc1ccccc1C1CCNc2c(C(N)=O)c(-c3ccc(OC)c(OC)c3)nn21 (stereo not shown) [Compound 168, 7-(2-Acrylamidophenyl)-2-(3,4-dimethoxyphenyl)-4,5,6,7-tetrahydropyrazolo[1,5-a]pyrimidine-3-carboxamide] | 3.7 nM | 
